According to patent US7049396B2, “Synthetic peptides that inhibit leukocyte superoxide anion production and/or attract leukocytes” (priority 1995, dated 2006):
≈ marks a conversion by molar mass, not a printed value. Where a SMILES comes first, the peptide text is derived from it.

Tests used:
[1] = tested on: porcine neutrophils; experiment: Neutrophil chemotaxis, modified Boyden chamber; type: cell-based; conditions: peptide at 0.05 μM, 30 min
Experimental: Influence of PR-39 on neutrophil chemotaxis. Chemotaxis of porcine neutrophils was measured by the procedure of Salak et al. (1993). Briefly, PR-14, PR15, PR-16, PR-26, or PR-39 (30 μl in Dulbecco's Modified Eagle's medium) were placed in the bottom chamber of a modified Boyden chamber (Neuro Probe, Cabin John, Md.) and porcine neutrophils (50 μl at 5×10^6 cells/ml) were placed in the top chamber. The chambers were incubated at 37° C. for 30 min. Cells that migrated through the porous membrane (pore size 5 μm) were stained using LeukoStat solution and enumerated. Five microscope fields were counted and the cells that migrated through the membrane were standardized to the medium control and referred to as the migration index.

[2] = tested on: Staphylococcus aureus; experiment: MIC/MBC microdilution broth method; type: cell-based; conditions: Staphylococcus aureus
Experimental: (§1) Plates were incubated at 37° C. for 18 hr. […] Viable bacteria were counted. Tests were repeated on three different days. […] The results were expressed as the mean ± standard deviation. […] S. choleraesuis, ATCC 6962 was used in this experiment. […] Slides were stained with LeukoStat solutions (Fisher, Pittsburgh, Pa.). […] At least 200 neutrophils were examined. […] Tests were repeated on three different days. Results were expressed as the mean±standard deviation.

[3] = tested on: Streptococcus suis; experiment: MIC/MBC microdilution broth method; type: cell-based; conditions: Streptococcus suis
Experimental: as §1

[4] = tested on: Salmonella typhimurium; experiment: MIC/MBC microdilution broth method; type: cell-based; conditions: Salmonella typhimurium
Experimental: as §1

[5] = tested on: Escherichia coli, 25922; experiment: MIC/MBC microdilution broth method; type: cell-based; conditions: Escherichia coli
Experimental: as §1

[6] = tested on: whole-cell NADPH oxidase activity of porcine peripheral blood neutrophils; experiment: Whole-cell O2- production, ferricytochrome c reduction; type: cell-based
Experimental: Regulation of neutrophil O2^− production by PR-26 and PR-39. • (i) O2^− production assays. Whole-cell O2^− production by por-cine peripheral blood neutrophils was determined by the superoxide dismutase-inhibitable reduction of ferricytochrome c as previously described (Shi et al., 1994a). Cell-free O2^− production was measured as previously described (Leto et al., 1991) using 96-well plates and a Molecular Devices Thermomax microplate reader (Menlo Park, Calif.). Reactions (100 μl) contained 10^6 cell equivalents of human neutrophil cytosol and 5×10^5 cell equivalents of deoxycholate-solubilized membranes prepared from human peripheral blood neutrophils. Reaction mixtures contained 50 mM potassium phosphate (pH 7), 0.2 mM acetylated cytochrome c, 4 mM MgCl2, 1 mM EGTA, 10 μM FAD, 1 μM GTP-γS, and 200 μM NADPH. The reactions were initiated by addition of 40 μM arachidonic acid. Control reactions contained 5 μg of superoxide dismutase. Superoxide anion generation was calculated based on superoxide dismutase-inhibitable changes in cytochrome c absorbance observed at 551 nm. The reactions were followed for 20 min. after addition of arachidonic acid, with absorbance readings taken at 1-min. intervals. Maximum rates of superoxide generation were calculated from a linear least squares fit of 10 consecutive 1-min. data points. Determinations were based on reactions performed in duplicate. • (ii) Binding assays. Neutrophils were disrupted by sonication, and unbroken cells, debris, and granules were removed by centrifuigation (13,000×g for 60 min.). Cytosol fractions were prepared by centrifugation (100,000 g for 45 min.) of the supernatants to remove residual membranes. Cytosolic proteins (15 μg in reducing buffer) were separated on a 7.5% SDS PAGE gel, transferred to PVDF membranes, and probed with biotinylated PR-39 (0.3 μM) for 2 hr. Binding between PR-39 and cytosolic proteins were visualized by a chemiluminescent streptavidin alkaline phosphatase system using an Epson scanner (Torrance, Calif.) and the NIH Image program. PR-39 was labeled with biotin hydrazide at the carboxy-terminus (Pierce Chemical Co., Rockford, Ill.) and purified by gel filtration chromatography.

[7] = target: recombinant p47^phox (Homo sapiens, UniProt P14598); experiment: Competitive ligand-blot binding assay
Sequence of recombinant p47^phox (P14598 whole entry, species assumed): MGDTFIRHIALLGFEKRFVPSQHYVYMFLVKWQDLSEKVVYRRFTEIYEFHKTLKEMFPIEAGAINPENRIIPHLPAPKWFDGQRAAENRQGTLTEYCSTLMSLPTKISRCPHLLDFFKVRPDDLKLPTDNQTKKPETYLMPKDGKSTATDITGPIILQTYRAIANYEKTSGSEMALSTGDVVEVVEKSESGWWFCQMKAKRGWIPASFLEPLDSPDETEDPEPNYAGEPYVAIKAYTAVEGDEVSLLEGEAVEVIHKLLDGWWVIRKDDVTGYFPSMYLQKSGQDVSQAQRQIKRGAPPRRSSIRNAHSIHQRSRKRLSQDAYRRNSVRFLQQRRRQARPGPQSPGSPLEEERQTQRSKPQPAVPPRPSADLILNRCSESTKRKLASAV
Experimental: Competitive ligand-blot assays were performed by incubating recombinant p47^phox (0.02 μM) with or without various concentrations (0.006, 0.06, and 0.6 μM) of PR-39 for 1 hr. at 37° C. and then with biotinylated PR-39 (0.06 μM) for an additional 1 hr. at 37° C. The solutions were dialyzed against ddH2O for 1 hr. at 4° C. before blotting to nitrocellulose (5 μl) and detection with a streptavidin alkaline-phosphatase detection system as described above.

[8] = tested on: S. typhimurium; experiment: Postantibiotic effect (PAE); type: cell-based, Salmonella typhimurium; conditions: 2 hr exposure
Experimental: as §1

[9] = tested on: p67^phox; experiment: Ligand-blot binding assay with biotinylated PR-39, p67phox; conditions: neutrophil cytosolic proteins probed with biotinylated PR-39
Experimental: Regulation of neutrophil O2^− production by PR-26 and PR-39. • (i) O2^− production assays. Whole-cell O2^− production by por-cine peripheral blood neutrophils was determined by the superoxide dismutase-inhibitable reduction of ferricytochrome c as previously described (Shi et al., 1994a). Cell-free O2^− production was measured as previously described (Leto et al., 1991) using 96-well plates and a Molecular Devices Thermomax microplate reader (Menlo Park, Calif.). Reactions (100 μl) contained 10^6 cell equivalents of human neutrophil cytosol and 5×10^5 cell equivalents of deoxycholate-solubilized membranes prepared from human peripheral blood neutrophils. Reaction mixtures contained 50 mM potassium phosphate (pH 7), 0.2 mM acetylated cytochrome c, 4 mM MgCl2, 1 mM EGTA, 10 μM FAD, 1 μM GTP-γS, and 200 μM NADPH. The reactions were initiated by addition of 40 μM arachidonic acid. Control reactions contained 5 μg of superoxide dismutase. Superoxide anion generation was calculated based on superoxide dismutase-inhibitable changes in cytochrome c absorbance observed at 551 nm. The reactions were followed for 20 min. after addition of arachidonic acid, with absorbance readings taken at 1-min. intervals. Maximum rates of superoxide generation were calculated from a linear least squares fit of 10 consecutive 1-min. data points. […]

[10] = tested on: rat intestinal epithelial cell line, IEC-6; type: cell-based
Experimental: Influence of PR-26 and PR-39 on intestinal epithelial cells. A nonradioactive assay based on the cellular conversion by viable cells of a tetrazolium salt into a blue formazan product was used to determine if PR-26 or PR-39 were toxic to intestinal epithelial cells. Ninety-six-well microtiter plates were seeded with the rat intestinal epithelial cell line, IEC-6, (5×10^4 cells/well) in DMEM containing 10% fetal bovine serum, 1% antibiotic/antimycotic, and […], and incubated at 37° C. for three days to achieve confluency. […] Well contents then were aspirated and monolayers were washed with medium. Medium (100 μl) and 15 μl of dye solution (Promega, Madison, Wis.) were added to each well and plates were incubated for 4 hr. at 37° C. Solubilization buffer (100 μl, Promega, Madison, Wis.) was added to each well and plates were incubated overnight to allow solubilization of the formazan crystals. Absorbance then was read at 570 nm using a microplate reader.

[11] = tested on: E. coli, ATCC 25922; experiment: Gel-overlay antibacterial assay; type: cell-based, Escherichia coli; conditions: 10 μg peptide per lane, AU-PAGE gel overlaid with E. coli, 18 hr
[12] = tested on: Escherichia coli, K88
Experimental: Briefly, 50 μl of twofold serial dilutions (128 to 0.25 μM) of synthetic peptides were dispensed into wells of 96-well tissue culture plates. Bacteria (E. coli, ATCC 25922; E. coli, K88; S. typhimurium, fresh isolate from a dog; Salmonella choleraesuis ATCC 6962; Streptococcus suis, fresh isolate from porcine spleen; and Staphylococcus aureus) from sheep-blood or brain-heart-infusion agar plates were standardized to 0.5 McFarland in demineralized water using a radiometer/sensititre (Chelsea Instrument Ltd., England). The water/bacteria suspension (100 μl) was immediately transferred to 10 ml of cation-adjusted Muller-Hinton broth and 50 μl of the bacterial suspension then were added to each well of the microtiter plate. Plates were incubated for 20 hr. at 37° C. and MICs were determined. Ten microliters of bacterial suspensions in Muller-Hinton broth also were diluted to determine the actual bacterial concentration using standard colony forming unit (CFU) counting. After determination of the MICs, 10 μl of each bacteria-peptide suspension were plated on sheep-blood or brain-heart-infusion agar plates and incubated for 24 hr. at 37° C. to determine the MBCs. MBC was considered that peptide concentration that inhibited 99.9% of the original CFUs (NCCLS, 1990). • (iv) PAE.

[13] = tested on: Salmonella choleraesuis; type: cell-based
Experimental: as §1

Structure (SMILES): CC[C@H](C)[C@H](NC(=O)[C@H](CCCNC(=N)N)NC(=O)[C@@H]1CCCN1C(=O)[C@@H]1CCCN1C(=O)[C@H](CC(C)C)NC(=O)[C@H](CCCNC(=N)N)NC(=O)[C@@H]1CCCN1C(=O)[C@@H]1CCCN1C(=O)[C@H](Cc1ccccc1)NC(=O)[C@H](Cc1ccccc1)NC(=O)[C@@H]1CCCN1C(=O)[C@@H]1CCCN1C(=O)[C@@H]1CCCN1C(=O)[C@H](CCCNC(=N)N)NC(=O)[C@@H]1CCCN1C(=O)[C@H](CCCNC(=N)N)NC(=O)[C@@H]1CCCN1C(=O)[C@H](CC(C)C)NC(=O)[C@H](Cc1ccc(O)cc1)NC(=O)[C@@H]1CCCN1C(=O)[C@@H]1CCCN1C(=O)[C@H](CCCNC(=N)N)NC(=O)[C@@H]1CCCN1C(=O)[C@H](CCCNC(=N)N)NC(=O)[C@H](CCCNC(=N)N)NC(=O)[C@@H](N)CCCNC(=N)N)C(=O)N1CCC[C@H]1C(=O)N1CCC[C@H]1C(=O)NCC(=O)N[C@@H](Cc1ccccc1)C(=O)N1CCC[C@H]1C(=O)N1CCC[C@H]1C(=O)N[C@@H](CCCNC(=N)N)C(=O)N[C@@H](Cc1ccccc1)C(=O)N1CCC[C@H]1C(=O)N1CCC[C@H]1C(=O)N[C@@H](CCCNC(=N)N)C(=O)N[C@@H](Cc1ccccc1)C(=O)N1CCC[C@H]1C(=O)O [PR-39] (H-RRRPRPPYLPRPRPPPFFPPRLPPRIPPGFPPRFPPRFP-OH; N-terminus and C-terminus assumed)
- neutrophil chemotaxis (migration index) [1]: chemotactic agents
- MIC [2]: >250 µM
- MBC [3]: >64 µM
- MIC [3]: >64 µM
- MBC [4]: 4 µM (≈ 18.9 µg/mL)
- MIC [4]: 4 µM (≈ 18.9 µg/mL)
- MBC [5]: 8 µM (≈ 37.8 µg/mL)
- MIC [5]: 4 µM (≈ 18.9 µg/mL)
- O2- generation by neutrophils ([6]; 5 μM, incubated at least 45 min. before PMA stimulation): significant reduction
- oxidase inhibition ([6]; 5 μM, longer pre-incubation periods before PMA): ~70%
- O2- generation by neutrophils ([6]; 20 μM added at the same time as PMA): did not affect
- inhibition of binding of biotinylated PR-39 to recombinant p47phox ([7]; tenfold excess of unlabeled peptide): completely blocked
- inhibition of binding of biotinylated PR-39 to recombinant p47phox ([7]; unlabeled peptide 0.06 μM, equimolar to labeled): 90%
- PAE (growth delay) ([8]; 0.1 MIC): slight growth delay
- PAE ([8]; 1 MIC): significantly increased
- PAE ([8]; 8 MICs): significantly increased
- binding to p67phox [9]: did not bind
- concentration at which cytotoxicity occurred [10]: 500 nM
- antibacterial activity (clear zones on overlaid gel) [11]: antibacterial activity
- MBC [12]: 4 µM (≈ 18.9 µg/mL)
- MIC [12]: 2 µM (≈ 9.44 µg/mL)
- MBC [13]: 4 µM (≈ 18.9 µg/mL)
- MIC [13]: 2 µM (≈ 9.44 µg/mL)
